Measured values from patent US4496584A, “Amidine derivatives with anti-complement activity” (Torii & Co. Ltd., priority 1981, dated 1985).
Where “and” joins values, the source holds several entries; their conditions need not be identical. Identical values can stand only once. Like-named read-outs stand apart in the source and are kept apart here.

Key:
Clr = biological target: T1, Clr (Homo sapiens, UniProt P00736); experiment: Anti-Cl esterase activity, Clr (AAME hydrolysis, method of Okamura et al.); assay type: biochemical; conditions: read-out: Anti-C1 activity, Clr (ID50)
T1 sequence (P00736 464-705 limits assumed): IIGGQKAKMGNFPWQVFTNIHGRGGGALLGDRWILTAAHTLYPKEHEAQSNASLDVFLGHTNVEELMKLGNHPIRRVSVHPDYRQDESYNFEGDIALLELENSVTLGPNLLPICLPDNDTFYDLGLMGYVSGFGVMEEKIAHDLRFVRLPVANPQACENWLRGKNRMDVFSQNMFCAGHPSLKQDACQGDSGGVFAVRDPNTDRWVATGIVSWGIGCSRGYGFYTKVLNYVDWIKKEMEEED
T1 sequence (P00736 18-463 partner limits assumed): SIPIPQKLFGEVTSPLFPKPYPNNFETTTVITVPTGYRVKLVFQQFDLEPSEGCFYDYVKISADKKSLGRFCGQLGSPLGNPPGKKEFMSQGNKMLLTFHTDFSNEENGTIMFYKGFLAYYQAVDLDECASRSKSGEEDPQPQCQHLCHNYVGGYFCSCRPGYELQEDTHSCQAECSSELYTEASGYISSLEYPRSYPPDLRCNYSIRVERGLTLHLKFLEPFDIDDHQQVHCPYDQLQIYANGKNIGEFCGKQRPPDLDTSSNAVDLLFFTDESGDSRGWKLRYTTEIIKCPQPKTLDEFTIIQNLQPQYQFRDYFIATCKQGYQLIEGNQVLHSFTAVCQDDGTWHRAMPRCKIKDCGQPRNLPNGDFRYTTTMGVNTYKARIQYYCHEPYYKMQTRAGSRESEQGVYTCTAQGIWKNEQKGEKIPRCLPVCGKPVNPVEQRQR
Experimental: (§1) The anti-Cl esterase (Clr, Cls) activity was determined according to the method of Okamura et al. [K. Okamura, M. Muramatsu and S. Fujii, Biochem. Biophys. Acta, 295, 252-257 (1973)]. The inhibition of complement mediated hemolysis (percent) was determined according to the method of Baker et al. [B. R. Baker and E. H. Erickson, J. Med. Chem., 12, 408-414 (1969)]. The figures in Table 2 have the following meanings:
Clr: Molar concentration of the test compound which inhibits 50% of the ability of Clr to hydrolyse AAME (acetylarginin methyl ester) (ID50).

[1] = test system: complement mediated hemolysis; experiment: Inhibition of complement mediated hemolysis (method of Baker et al.); assay type: cell-based
plasmin = plasmin (Homo sapiens, UniProt P00747); experiment: Enzyme inhibition, TAME hydrolysis, plasmin (method of Muramatsu et al.); assay type: biochemical; conditions: read-out: ID50, plasmin
Chain of plasmin (P00747 581-810 limits assumed): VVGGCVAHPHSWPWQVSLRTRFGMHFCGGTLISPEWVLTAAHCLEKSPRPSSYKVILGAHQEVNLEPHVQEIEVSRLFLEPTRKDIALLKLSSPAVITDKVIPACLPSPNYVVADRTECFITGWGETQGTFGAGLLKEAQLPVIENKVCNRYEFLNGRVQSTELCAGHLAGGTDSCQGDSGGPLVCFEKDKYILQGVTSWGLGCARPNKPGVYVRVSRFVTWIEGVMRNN
Chain of plasmin (P00747 97-580 partner limits assumed): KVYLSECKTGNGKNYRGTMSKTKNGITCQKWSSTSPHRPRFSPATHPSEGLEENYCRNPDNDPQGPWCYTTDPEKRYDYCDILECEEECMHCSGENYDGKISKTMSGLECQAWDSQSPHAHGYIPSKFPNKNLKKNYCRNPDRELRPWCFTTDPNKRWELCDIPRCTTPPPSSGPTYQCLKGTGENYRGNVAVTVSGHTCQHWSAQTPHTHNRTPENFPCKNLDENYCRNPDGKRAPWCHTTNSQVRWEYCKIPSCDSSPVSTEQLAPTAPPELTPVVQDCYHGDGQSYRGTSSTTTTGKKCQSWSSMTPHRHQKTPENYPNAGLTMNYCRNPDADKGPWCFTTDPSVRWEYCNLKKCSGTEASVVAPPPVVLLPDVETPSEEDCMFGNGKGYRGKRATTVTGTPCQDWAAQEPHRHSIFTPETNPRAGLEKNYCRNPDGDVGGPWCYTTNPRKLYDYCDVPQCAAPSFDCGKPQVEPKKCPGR
Experimental: (§2) The enzyme inhibitory activity was determined according to the method of Muramatsu et al. [M. Muramatsu, T. Onishi, S. Makino, Y. Hayashi and S. Fujii, J. Biochem., 58, 214 (1965)]. The data summarized in Table 1 are expressed in terms of molar concentration (ID50) of the test compound which inhibits 50% of the activity of each enzyme to hydrolyze TAME (tosylarginine methyl ester).

Cls = biological target: T2, Cls (Homo sapiens, UniProt P09871); experiment: Anti-Cl esterase activity, Cls (ATEE hydrolysis, method of Okamura et al.); assay type: biochemical; conditions: read-out: Anti-C1 activity, Cls (ID50)
T2 sequence (P09871 438-688 limits assumed): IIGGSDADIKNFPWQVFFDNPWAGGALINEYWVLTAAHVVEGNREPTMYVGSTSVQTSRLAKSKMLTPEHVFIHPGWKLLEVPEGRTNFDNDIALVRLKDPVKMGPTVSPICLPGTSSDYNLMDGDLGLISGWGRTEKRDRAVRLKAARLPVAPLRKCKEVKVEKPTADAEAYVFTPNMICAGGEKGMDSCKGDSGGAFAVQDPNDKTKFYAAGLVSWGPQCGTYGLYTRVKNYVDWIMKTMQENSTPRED
T2 sequence (P09871 16-437 partner limits assumed): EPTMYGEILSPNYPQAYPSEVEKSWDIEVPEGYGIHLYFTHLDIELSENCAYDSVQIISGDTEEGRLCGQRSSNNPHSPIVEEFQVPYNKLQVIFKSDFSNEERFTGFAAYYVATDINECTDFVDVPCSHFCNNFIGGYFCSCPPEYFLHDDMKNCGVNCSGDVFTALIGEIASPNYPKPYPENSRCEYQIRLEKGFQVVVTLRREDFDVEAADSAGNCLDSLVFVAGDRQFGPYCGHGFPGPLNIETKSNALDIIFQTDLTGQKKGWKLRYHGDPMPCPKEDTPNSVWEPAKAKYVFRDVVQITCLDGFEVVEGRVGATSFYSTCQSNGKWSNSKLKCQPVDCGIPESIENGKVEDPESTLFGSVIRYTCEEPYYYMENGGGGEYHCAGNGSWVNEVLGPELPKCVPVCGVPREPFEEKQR
Experimental: as §1
Cls: Molar concentration of the test compound which inhibits 50% of the ability of Cls to hydrolyse ATEE (acetyltyrosin ethyl ester) (ID50).

[2] = Toxicity, lethal dose (LD50); conditions: mouse, in vivo
kallikrein = experiment: Enzyme inhibition, TAME hydrolysis, kallikrein (method of Muramatsu et al.); assay type: biochemical; conditions: for IC50: read-out: ID50, kallikrein
Experimental: as §2

trypsin = biological target: T3, trypsin (Bos taurus, UniProt P00760); experiment: Enzyme inhibition, TAME hydrolysis, trypsin (method of Muramatsu et al.); assay type: biochemical; conditions: for IC50: hydrolysis of TAME, read-out: ID50, trypsin
T3 sequence (P00760 24-246): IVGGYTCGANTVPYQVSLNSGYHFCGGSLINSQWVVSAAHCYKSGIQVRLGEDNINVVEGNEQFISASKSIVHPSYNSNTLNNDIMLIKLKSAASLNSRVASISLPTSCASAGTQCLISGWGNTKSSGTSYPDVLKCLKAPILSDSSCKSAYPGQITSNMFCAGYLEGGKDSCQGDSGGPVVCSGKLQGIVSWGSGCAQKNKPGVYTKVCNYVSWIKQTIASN
Experimental: as §2

thrombin = thrombin (Bos taurus, UniProt P00735); experiment: Enzyme inhibition, TAME hydrolysis, thrombin (method of Muramatsu et al.); assay type: biochemical
Experimental: as §2

Forssman shock = experiment: Forssman shock, time elapsed until death; assay type: in vivo, guinea pig; conditions: 5 minutes before hemolysin
Experimental: The experiment was performed according to the method of I. G. Offerness et al. [Biochem. Pharmacol., 27 (14), 1873-1878 (1978)]. Male Hartlay guinea pig of about 300 g in body weight was used. Each guinea pig of the control group was administered intravenously with 0.5 ml (minimum dose to cause the shock) of hemolysin (commercial hemolysin, 5,000 U as assayed by the method of Ogata) and the time elapsed until death was observed. For the test group, each guinea pig was administered intravenously with the test compound 5 minutes before the administration of hemolysin and the time (second) elapsed until death was observed.

Compound	IC50 (Clr) [µM]	Inhibition of complement mediated hemolysis (%) ([1]; concentration 1 × 10^-4)	Inhibition of complement mediated hemolysis (%) ([1]; concentration 1 × 10^-5)	Inhibition of complement mediated hemolysis (%) ([1]; concentration 1 × 10^-6)	Inhibition of complement mediated hemolysis (%) ([1]; concentration 1 × 10^-7)	IC50 (plasmin) [µM]	IC50 (Cls) [µM]	LD50 ([2]; ip, read-out: LD50 Mouse IP) [mg/kg]	LD50 ([2]; po, read-out: LD50 Mouse PO) [mg/kg]	IC50 (kallikrein) [µM]	IC50 (trypsin) [µM]	IC50 (thrombin) [µM]	percentage inhibition, kallikrein (figure in parentheses) (kallikrein; 1×10^-5 M) [%]	inhibition at 10 µM (trypsin; read-out: percentage inhibition, trypsin (figure in parentheses)) [%]	time elapsed until death, Average (Forssman shock; 1.0 mg/kg intravenously, average of 6, control average 428) [s]	time elapsed until death (Forssman shock; 1.0 mg/kg intravenously, individual animals 1-6)	time elapsed until death / survival (Forssman shock; 3.0 mg/kg intravenously, individual animals 1-6, ditto mark = Survival)
CC(=O)Oc1ccc2cc(C(=N)N)ccc2c1 [Compound No. 1, 6-amidino-2-naphthyl acetate]	10	86	15	0	0	200	20	200	2500	500	80	400					
CCCC(=O)Oc1ccc2cc(C(=N)N)ccc2c1 [Compound No. 2, 6-amidino-2-naphthyl n-butyrate]	9	96	40	1	0	30	20	200	2500	700	20	20					
CC(C)CC(=O)Oc1ccc2cc(C(=N)N)ccc2c1 [Compound No. 3, 6-amidino-2-naphthyl isovalerate]	2	95	37	0	0	30	2			500	30	80					
N=C(N)c1ccc2cc(OC(=O)C3CC3)ccc2c1 [Compound No. 10, 6-amidino-2-naphthyl cyclopropanecarboxylate]	0.2	100	92	18	0	4	0.3			100	2	3					
N=C(N)c1ccc2cc(OC(=O)C3CCCCC3)ccc2c1 [Compound No. 12, 6-amidino-2-naphthylcyclohexanecarboxylate]	2	45	10	11	0	10	3			> 10	20	40					
N=C(N)c1ccc2cc(OC(=O)CCCCCNC(=O)OCc3ccccc3)ccc2c1 [Compound No. 16, 6-amidino-2-naphthyl ε-benzyloxycarbonylaminocaproate]	4	92	15	0	0	3	4			40	10	100					
N=C(N)NCCCCCC(=O)Oc1ccc2cc(C(=N)N)ccc2c1 [Compound No. 18, 6-amidino-2-naphthyl ε-guanidinocaproate]	70	92	30	3	0	30	9			> 10	10	40					
N=C(N)c1ccc2cc(OC(=O)[C@H]3CC[C@H](CN)CC3)ccc2c1 [Compound No. 20, 6-amidino-2-naphthyl trans-4-aminomethylcyclohexanecarboxylate]	5	100	99	80	12	> 10	4	175	2000			> 10	38	28	442	360 s and 365 s and 325 s and 620 s and 650 s	Survival
CCCCCC(=O)Oc1ccc2cc(C(=N)N)ccc2c1 [compound 4, 6-amidino-2-naphthyl caproate]	5	83	12	5	0	20	4			300	20	3000					
N=C(N)c1ccc2cc(OC(=O)[C@H]3CC[C@H](CNC(=O)OCc4ccccc4)CC3)ccc2c1 [compound 19, 6-amidino-2-naphtyl trans-4-benzyloxycarbonylaminomethylcyclohexanecarboxylate]	0.4	55	88	25	6	0.8	0.4			6	1	30					
